Results: US11422132B2, “Peptides and uses thereof for diagnosing and treating myasthenia gravis” (The Regents of the University of California, priority 2016, dated 2022)

What was measured:
Format in all cases: binding, rat
mAb 35 [1] = assay: Western blot of peptide-IChBD fusion proteins probed with mAb 35; conditions: for mAb 35 binding relative to binding to the Torpedo 39MIR: FIG. 5 Western blots, Torpedo 39MIR single mutants; for mAb 35, fold-change in binding relative to Torpedo 39MIR: Table 1, Western blot of FIG. 5, Torpedo 39MIR single mutants; for mAb 35 binding, result in words: Western blot
Method: (§1) Chitin beads adsorbed with peptide-IChBD fusion proteins were run on an SDS-PAGE gel and transferred to a nitrocellulose membrane and assayed with the four mAbs.
(§2) Chitin beads adsorbed with peptide-IChBD fusion proteins were run on an SDS-PAGE gel and transferred to a nitrocellulose membrane and assayed with the five mAbs.
(§3) To explore the effects of individual amino acid substitutions between the Torpedo and the human AChR MIR mimics, eight peptides were prepared, each with an amino acid substituted from the human sequence into the Torpedo sequence. The single amino acid substitutions in the Torpedo MIR were: N10K (SEQ ID NO:11), L12F (SEQ ID NO:12), R66K (SEQ ID NO:13), A70D (SEQ ID NO:14), I75V (SEQ ID NO:15), R79H (SEQ ID NO:16), D111Q (SEQ ID NO:17), and K115H (SEQ ID NO:18).

mAb 132A [2] = assay: Western blot of peptide-IChBD fusion proteins probed with mAb 132A; conditions: for mAb 132A binding relative to binding to the Torpedo 39MIR: FIG. 5 Western blots, Torpedo 39MIR single mutants; for mAb 132A, fold-change in binding relative to Torpedo 39MIR: Table 1, Western blot of FIG. 5, Torpedo 39MIR single mutants; for mAb 132A binding, result in words: Western blot
Method: as §1, §2, §3

mAb 198 = assay: Western blot of peptide-IChBD fusion proteins probed with mAb 198; conditions: for mAb 198 binding compared to its binding to the human 39MIR: human 39MIR mutants, relative to human 39MIR
Excerpt: as §1, §2
The Torpedo (SEQ ID NO:9) and human (SEQ ID NO:8) 39MIRs were made by joining the α(1-12), α(65-79), and α(110-115) segments of their respective a subunits with GS linkers. These two MIR mimics were expressed in E. coli as fusion proteins with an IChBD tag to permit peptide collection on chitin beads. These two peptides differ from each other by eight amino acids (FIG. 2). Both mimics were probed with mAb 198. mAb 198, which was derived from rats that had been immunized with human muscle AChR, is a MIR-directed mAb that binds mammalian as well as Torpedo MIR (13,21). It was also able to passively transfer EAMG to rats and binds to both native assembled AChR and to α-subunit fragments in Western blots (22,23). mAb 198 binds to the Torpedo and human MIR peptide mimics in Western blots (FIG. 3). However, mAb 198 binds to the Torpedo mimic about 50 times more strongly than to the human MIR mimic (FIG. 3).
as §3

mAb 334 = assay: Western blot of peptide-IChBD fusion proteins probed with mAb 334; conditions: for mAb 334 binding relative to Torpedo 39MIR: FIG. 5 Western blots, Torpedo 39MIR single mutants; for mAb 334, fold-change in binding relative to Torpedo 39MIR: Table 1, Western blot of FIG. 5, Torpedo 39MIR single mutants
Method: as §2, §3

mAb 35 [3] = assay: Western blot of peptide-IChBD fusion proteins probed with mAb 35; conditions: for mAb 35 binding compared to the Torpedo 39MIR peptide: single point mutated human 39MIR peptides
mAb 132A [4] = assay: Western blot of peptide-IChBD fusion proteins probed with mAb 132A; parameters: key to mAb 132A, fold-change in binding relative to Torpedo 39MIR: ‘—’ denotes no binding
[5] = Table 1, Western blot of FIG. 5, Torpedo 39MIR single mutants
[6] = Table 2, Western blot of FIG. 7, human 39MIR multiple mutants
[7] = Table 3, single-substitution human 39MIR mutants

Sequence: SEHETRLVANLFGGGSLRWNPADYGGIKKIRGSLDYTGK (synthetic main immunogenic region (MIR) peptide) [Mutant L12F, Torpedo 39MIR single mutant (L12F)]
- mAb 35 binding relative to binding to the Torpedo 39MIR (mAb 35 [1]): 1.42 ×
- mAb 35, fold-change in binding relative to Torpedo 39MIR (mAb 35 [1]): 1.42 fold-change
- mAb 132A binding relative to binding to the Torpedo 39MIR (mAb 132A [2]): 1.10 ×
- mAb 132A, fold-change in binding relative to Torpedo 39MIR (mAb 132A [2]): 1.10 fold-change
- mAb 198, fold-change in binding relative to Torpedo 39MIR (mAb 198; [5]): 0.90 fold-change
- mAb 334 binding relative to Torpedo 39MIR (mAb 334): 0.88 ×
- mAb 334, fold-change in binding relative to Torpedo 39MIR (mAb 334): 0.88 fold-change

Sequence: SEHETRLVANLFGGGSLKWNPADYGGVKKIHGSLQYTGH (synthetic main immunogenic region (MIR) peptide) [K10N/D70A, Human 39MIR double mutant (K10N/D70A)]
- mAb 35 binding, result in words (mAb 35 [1]): restored binding
- mAb 132A binding, result in words (mAb 132A [2]): restored binding
- mAb 198, fold-change in binding relative to Torpedo 39MIR (mAb 198; [6]): 0.72 fold-change
- mAb 198 binding, result in words (mAb 198; Western blot): restored binding
- mAb 35, fold-change in binding relative to Torpedo 39MIR (mAb 35 [3]; [6]): 0.31 fold-change
- mAb 132A, fold-change in binding relative to Torpedo 39MIR (mAb 132A [4]; [6]): 0.16 fold-change

Sequence: SEHETRLVANLLGGGSLKWNPADYGGIKKIRGSLDYTGK (synthetic main immunogenic region (MIR) peptide) [Mutant R66K, Torpedo 39MIR single mutant (R66K)]
- mAb 35 binding relative to binding to the Torpedo 39MIR (mAb 35 [1]): 0.62 ×
- mAb 35, fold-change in binding relative to Torpedo 39MIR (mAb 35 [1]): 0.62 fold-change
- mAb 132A binding relative to binding to the Torpedo 39MIR (mAb 132A [2]): 1.55 ×
- mAb 132A, fold-change in binding relative to Torpedo 39MIR (mAb 132A [2]): 1.55 fold-change
- mAb 198, fold-change in binding relative to Torpedo 39MIR (mAb 198; [5]): 1.03 fold-change
- mAb 334 binding relative to Torpedo 39MIR (mAb 334): 2.75 ×
- mAb 334, fold-change in binding relative to Torpedo 39MIR (mAb 334): 2.75 fold-change

Sequence: SEHETRLVAKLFGGGSLKWNPDDYGGVKKIHGSLDYTGH [Q111D] (synthetic main immunogenic region (MIR) peptide) [Mutant Q111D, Human 39MIR single mutant (Q111D)]
- mAb 35 binding, result in words (mAb 35 [1]): restored mAb 35 binding
- mAb 198, fold-change in binding relative to Torpedo 39MIR (mAb 198; [7]): 0.59 fold-change
- mAb 198 binding compared to its binding to the human 39MIR (mAb 198): 35.7 ×
- mAb 35, fold-change in binding relative to Torpedo 39MIR (mAb 35 [3]; [7]): 0.06 fold-change
- mAb 35 binding compared to the Torpedo 39MIR peptide (mAb 35 [3]): 0.06
- mAb 132A, fold-change in binding relative to Torpedo 39MIR (mAb 132A [4]; [7]): —

Sequence: SEHETRLVAKLLGGGSLRWNPADYGGIKKIRGSLDYTGK (synthetic main immunogenic region (MIR) peptide) [Mutant N10K, Torpedo 39MIR single mutant (N10K)]
- mAb 35 binding relative to binding to the Torpedo 39MIR (mAb 35 [1]): 0.29 ×
- mAb 35, fold-change in binding relative to Torpedo 39MIR (mAb 35 [1]): 0.29 fold-change
- mAb 132A binding relative to binding to the Torpedo 39MIR (mAb 132A [2]): 0.03 ×
- mAb 132A, fold-change in binding relative to Torpedo 39MIR (mAb 132A [2]): 0.03 fold-change
- mAb 198 binding relative to Torpedo 39MIR (mAb 198; FIG. 5 Western blots, Torpedo 39MIR single mutants): 0.82 ×
- mAb 198, fold-change in binding relative to Torpedo 39MIR (mAb 198; [5]): 0.82 fold-change
- mAb 334 binding relative to Torpedo 39MIR (mAb 334): 0.59 ×
- mAb 334, fold-change in binding relative to Torpedo 39MIR (mAb 334): 0.59 fold-change

Sequence: SEHETRLVANLFGGGSLKWNPDDYGGVKKIHGSLQYTGH (synthetic main immunogenic region (MIR) peptide) [Mutant K10N, Human 39MIR single mutant (K10N)]
- mAb 35 binding, result in words (mAb 35 [1]): restored mAb 35 binding
- mAb 198, fold-change in binding relative to Torpedo 39MIR (mAb 198; [7]): 0.23 fold-change
- mAb 198 binding compared to its binding to the human 39MIR (mAb 198): 13 ×
- mAb 35, fold-change in binding relative to Torpedo 39MIR (mAb 35 [3]; [7]): 0.01 fold-change
- mAb 35 binding compared to the Torpedo 39MIR peptide (mAb 35 [3]): 0.01
- mAb 132A, fold-change in binding relative to Torpedo 39MIR (mAb 132A [4]; [7]): —

Sequence: SEHETRLVAKLFGGGSLKWNPDDYGGVKKIHGSLDYTGH [rat 39 MIR] (synthetic main immunogenic region (MIR) peptide) [Mouse 39MIR; rat/mouse 39MIR homolog]
- mAb 35 binding, result in words (mAb 35 [1]): did not bind
- mAb 132A binding, result in words (mAb 132A [2]): did not bind
